“And” between values parts separate entries of the source, which are not always exact repeats. Identical values can stand only once.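 The compound was tested at five concentrations on cells cultured in 96-well plates, with a 48-hour exposure period. GI50 is the concentration that inhibits growth by half. TGI denotes the concentration required for complete inhibition of growth.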
Columns and labels:
Test in all cases: NCI-60 cell line screen, 48 h
EKVX NSCLC = system: EKVX NSCLC
MDA-MB-231 breast = system: MDA-MB-231 breast
SF-539 CNS = system: SF-539 CNS
HCC-2998 colon = system: HCC-2998 colon
SK-OV-3 ovarian = system: SK-OV-3 ovarian
ACHN renal = system: ACHN renal
HS 578T breast = system: HS 578T breast
NCI-H460 lung = system: NCI-H460 lung
SK-MEL-2 melanoma = system: SK-MEL-2 melanoma
OVCAR-5 ovarian = system: OVCAR-5 ovarian
786-0 renal = system: 786-0 renal
HCT-116 colon = system: HCT-116 colon
NCI-H522 lung = system: NCI-H522 lung
CCRF-CEM leukemia = system: CCRF-CEM leukemia
OVCAR-8 ovarian = system: OVCAR-8 ovarian
NCI-H23 lung = system: NCI-H23 lung
CAKI-1 renal = system: CAKI-1 renal
K-562 leukemia = system: K-562 leukemia
SF-268 CNS = system: SF-268 CNS
PC-3 prostate = system: PC-3 prostate
SR leukemia = system: SR leukemia
IGROV1 ovarian = system: IGROV1 ovarian
A549 NSCLC = system: A549 NSCLC
MOLT-4 leukemia = system: MOLT-4 leukemia
T-47D breast = system: T-47D breast
MCF7 breast = system: MCF7 breast
SF-295 CNS = system: SF-295 CNS
UO-31 renal = system: UO-31 renal
SNB-19 CNS = system: SNB-19 CNS
U251 CNS = system: U251 CNS
SNB-75 CNS = system: SNB-75 CNS
LOX IMVI melanoma = system: LOX IMVI melanoma
HT29 colon = system: HT29 colon
HOP-62 NSCLC = system: HOP-62 NSCLC
HCT-15 colon = system: HCT-15 colon
OVCAR-4 ovarian = system: OVCAR-4 ovarian
A498 renal = system: A498 renal
NCI/ADR-RES ovarian = system: NCI/ADR-RES ovarian
SK-MEL-28 melanoma = system: SK-MEL-28 melanoma
COLO 205 colon = system: COLO 205 colon
SW-620 colon = system: SW-620 colon
KM12 colon = system: KM12 colon
DU-145 prostate = system: DU-145 prostate
OVCAR-3 ovarian = system: OVCAR-3 ovarian
MDA-MB-435 = system: MDA-MB-435
HL-60(TB) leukemia = system: HL-60(TB) leukemia
RPMI-8226 leukemia = system: RPMI-8226 leukemia
SK-MEL-5 melanoma = system: SK-MEL-5 melanoma
M14 melanoma = system: M14 melanoma
HOP-92 NSCLC = system: HOP-92 NSCLC

With `Cc1cc2nc3ccc(N=Nc4ccc(N(C)C)cc4)cc3n(-c3ccccc3)c-2cc1=N` as the compound, how does the GI50 (EKVX NSCLC) read?
Its GI50 is 23 nM.

What about the TGI (EKVX NSCLC) of the same compound?
Its TGI is 212 nM.

And the GI50 (MDA-MB-231 breast)?
Its GI50 is 74 nM.

And the TGI (MDA-MB-231 breast)?
Its TGI is 466 nM.

What about the GI50 (SF-539 CNS) of the same compound?
The GI50 was 22.6 nM.

What about the TGI (SF-539 CNS) of the same compound?
Its TGI is 153 nM.

And the GI50 (HCC-2998 colon)?
Its GI50 is 43.1 nM.

And the TGI (HCC-2998 colon)?
Its TGI is 1600 nM.

And the GI50 (SK-OV-3 ovarian)?
Its GI50 is 30.5 nM.

What about the TGI (SK-OV-3 ovarian) of the same compound?
Its TGI is 187 nM.

And the GI50 (ACHN renal)?
Its GI50 is 23.3 nM and 210 nM.

And the GI50 (HS 578T breast)?
The GI50 was 16.8 nM.

And the TGI (HS 578T breast)?
The TGI was 81.6 nM.

And the GI50 (NCI-H460 lung)?
The GI50 was 14.6 nM.

What about the TGI (NCI-H460 lung) of the same compound?
Its TGI is 52.7 nM.

And the GI50 (SK-MEL-2 melanoma)?
The GI50 was 58 nM.

And the TGI (SK-MEL-2 melanoma)?
Its TGI is 317 nM.

What about the GI50 (OVCAR-5 ovarian) of the same compound?
Its GI50 is 48.6 nM.

What about the TGI (OVCAR-5 ovarian) of the same compound?
The TGI was 1550 nM.

And the GI50 (786-0 renal)?
Its GI50 is 77.8 nM.

What about the TGI (786-0 renal) of the same compound?
Its TGI is 505 nM.

What about the GI50 (HCT-116 colon) of the same compound?
Its GI50 is 17.7 nM.

And the TGI (HCT-116 colon)?
Its TGI is 116 nM.

What about the GI50 (NCI-H522 lung) of the same compound?
The GI50 was 19.9 nM and 147 nM.

What about the GI50 (CCRF-CEM leukemia) of the same compound?
The GI50 was 8.58 nM and 16.2 nM.

What about the TGI (CCRF-CEM leukemia) of the same compound?
The TGI was 203 nM and 141 nM.

What about the GI50 (OVCAR-8 ovarian) of the same compound?
Its GI50 is 23.2 nM and 41.4 nM.

And the GI50 (NCI-H23 lung)?
The GI50 was 25.3 nM.

And the TGI (NCI-H23 lung)?
Its TGI is 418 nM.

What about the GI50 (CAKI-1 renal) of the same compound?
Its GI50 is 36.9 nM.

What about the TGI (CAKI-1 renal) of the same compound?
The TGI was 1070 nM.

And the GI50 (K-562 leukemia)?
Its GI50 is 6.86 nM.

And the GI50 (SF-268 CNS)?
The GI50 was 33.2 nM.

What about the TGI (SF-268 CNS) of the same compound?
Its TGI is 260 nM.

What about the GI50 (PC-3 prostate) of the same compound?
The GI50 was 14.3 nM.

What about the TGI (PC-3 prostate) of the same compound?
Its TGI is 183 nM.

What about the GI50 (SR leukemia) of the same compound?
The GI50 was 20.8 nM.

And the TGI (SR leukemia)?
Its TGI is 394 nM.

What about the GI50 (IGROV1 ovarian) of the same compound?
Its GI50 is 22.1 nM and 32.8 nM.

And the GI50 (A549 NSCLC)?
Its GI50 is 8.94 nM.

And the TGI (A549 NSCLC)?
The TGI was 264 nM.

And the GI50 (MOLT-4 leukemia)?
Its GI50 is 14.6 nM.

And the TGI (MOLT-4 leukemia)?
The TGI was 1920 nM.

And the GI50 (T-47D breast)?
The GI50 was 2.96 nM.

What about the TGI (T-47D breast) of the same compound?
Its TGI is 70.6 nM.

What about the GI50 (MCF7 breast) of the same compound?
Its GI50 is 1.99 nM.

And the TGI (MCF7 breast)?
The TGI was 14.3 nM.

And the GI50 (SF-295 CNS)?
The GI50 was 15.4 nM and 31.4 nM.

And the GI50 (UO-31 renal)?
Its GI50 is 33.3 nM.

What about the TGI (UO-31 renal) of the same compound?
The TGI was 820 nM.

What about the GI50 (SNB-19 CNS) of the same compound?
The GI50 was 21.2 nM and 73.1 nM.

What about the TGI (SNB-19 CNS) of the same compound?
Its TGI is 1080 nM and 1610 nM.

What about the GI50 (U251 CNS) of the same compound?
The GI50 was 18.3 nM.

And the TGI (U251 CNS)?
Its TGI is 114 nM.

And the GI50 (SNB-75 CNS)?
The GI50 was 50 nM.

And the TGI (SNB-75 CNS)?
The TGI was 1250 nM.

And the GI50 (LOX IMVI melanoma)?
Its GI50 is 25.9 nM.

What about the TGI (LOX IMVI melanoma) of the same compound?
Its TGI is 117 nM.

What about the GI50 (HT29 colon) of the same compound?
Its GI50 is 49.7 nM.

And the TGI (HT29 colon)?
The TGI was 1150 nM.

And the GI50 (HOP-62 NSCLC)?
Its GI50 is 40.6 nM.

What about the TGI (HOP-62 NSCLC) of the same compound?
Its TGI is 1750 nM.

And the GI50 (HCT-15 colon)?
The GI50 was 27.3 nM and 177 nM.

And the TGI (HCT-15 colon)?
The TGI was 259 nM and 1310 nM.

And the GI50 (OVCAR-4 ovarian)?
Its GI50 is 11.6 nM and 41.5 nM.

And the TGI (OVCAR-4 ovarian)?
The TGI was 120 nM and 802 nM.

And the GI50 (A498 renal)?
Its GI50 is 30.8 nM.

What about the TGI (A498 renal) of the same compound?
Its TGI is 1090 nM.

And the GI50 (NCI/ADR-RES ovarian)?
The GI50 was 279 nM.

What about the TGI (NCI/ADR-RES ovarian) of the same compound?
Its TGI is 3130 nM.

What about the GI50 (SK-MEL-28 melanoma) of the same compound?
The GI50 was 57.3 nM.

What about the TGI (SK-MEL-28 melanoma) of the same compound?
Its TGI is 241 nM.

What about the GI50 (COLO 205 colon) of the same compound?
Its GI50 is 3.43 nM.

And the TGI (COLO 205 colon)?
Its TGI is 21.6 nM.

What about the GI50 (SW-620 colon) of the same compound?
Its GI50 is 22.1 nM.

And the TGI (SW-620 colon)?
The TGI was 120 nM.

And the GI50 (KM12 colon)?
Its GI50 is 17.4 nM.

What about the TGI (KM12 colon) of the same compound?
Its TGI is 116 nM.

And the GI50 (DU-145 prostate)?
The GI50 was 20.8 nM.

And the TGI (DU-145 prostate)?
The TGI was 123 nM.

What about the GI50 (OVCAR-3 ovarian) of the same compound?
Its GI50 is 12.1 nM.

What about the TGI (OVCAR-3 ovarian) of the same compound?
Its TGI is 39 nM.

And the GI50 (MDA-MB-435)?
The GI50 was 40.2 nM.

What about the TGI (MDA-MB-435) of the same compound?
Its TGI is 165 nM.

What about the GI50 (HL-60(TB) leukemia) of the same compound?
The GI50 was 3.34 nM and 11.9 nM.

What about the GI50 (RPMI-8226 leukemia) of the same compound?
The GI50 was 2.54 nM.

What about the TGI (RPMI-8226 leukemia) of the same compound?
Its TGI is 20 nM.

What about the GI50 (SK-MEL-5 melanoma) of the same compound?
The GI50 was 23.5 nM.

And the TGI (SK-MEL-5 melanoma)?
The TGI was 143 nM.

And the GI50 (M14 melanoma)?
The GI50 was 65.7 nM.

And the TGI (M14 melanoma)?
The TGI was 239 nM.

And the GI50 (HOP-92 NSCLC)?
Its GI50 is 32.5 nM.

What about the TGI (HOP-92 NSCLC) of the same compound?
The TGI was 386 nM.

From PubChem BioAssay (NCI)
